In the NIST ThermoML archive (doi:10.1021/je300852v):
Numbers after ± are expanded uncertainties.

Experiment: mean ionic activity coefficient (dimensionless); mn = molality of the nth substance listed, in mol/kg
Settings: 298.15 K, 101 kPa, Liquid, 2 term dubye huckel

[Ca+2].[Cl-].[Cl-] [calcium chloride] + O
mean ionic activity coefficient (m1 = 0.01): 0.728 ± 0.001
mean ionic activity coefficient (m1 = 0.02): 0.664 ± 0.001
mean ionic activity coefficient (m1 = 0.05): 0.576 ± 0.001
mean ionic activity coefficient (m1 = 0.1): 0.517 ± 0.001
mean ionic activity coefficient (m1 = 0.2): 0.47 ± 0.001
mean ionic activity coefficient (m1 = 0.3): 0.453 ± 0.001
mean ionic activity coefficient (m1 = 0.4): 0.448 ± 0.001
mean ionic activity coefficient (m1 = 0.5): 0.449 ± 0.001
mean ionic activity coefficient (m1 = 0.6): 0.454 ± 0.001
mean ionic activity coefficient (m1 = 0.7): 0.462 ± 0.001
mean ionic activity coefficient (m1 = 0.8): 0.473 ± 0.001
mean ionic activity coefficient (m1 = 0.9): 0.487 ± 0.001
mean ionic activity coefficient (m1 = 1): 0.502 ± 0.001
mean ionic activity coefficient (m1 = 1.2): 0.54 ± 0.001
mean ionic activity coefficient (m1 = 1.4): 0.586 ± 0.001
mean ionic activity coefficient (m1 = 1.6): 0.643 ± 0.001
mean ionic activity coefficient (m1 = 1.8): 0.71 ± 0.001
mean ionic activity coefficient (m1 = 2): 0.79 ± 0.001
mean ionic activity coefficient (m1 = 2.5): 1.064 ± 0.001
mean ionic activity coefficient (m1 = 3): 1.49 ± 0.001
